# Data as given in ChEMBL document CHEMBL1201862, “PubChem BioAssay data set” (2004).
# Activity calls are given as the source filed them.
# Experiments:
# [1] = THP-1 cell cytotoxicity, dose response, cytotoxicity control for non-replicating M. tuberculosis project (AID 489025); assay type: functional
# [2] = HepG2 cell cytotoxicity, dose response, cytotoxicity control for non-replicating M. tuberculosis project (AID 489018); assay type: functional; conditions: Mycobacterium tuberculosis
# Cannabinoid receptor 1 [3] = target: T1, Cannabinoid receptor 1 (Homo sapiens, UniProt P21554); test: SAR analysis of antagonists of the Cannabinoid Receptor 1 using an Image-Based Assay - Set 3. [Related pubchem assays (depositor defined):AID1961, AID1965]; assay type: functional
# T1 sequence (P21554 whole entry): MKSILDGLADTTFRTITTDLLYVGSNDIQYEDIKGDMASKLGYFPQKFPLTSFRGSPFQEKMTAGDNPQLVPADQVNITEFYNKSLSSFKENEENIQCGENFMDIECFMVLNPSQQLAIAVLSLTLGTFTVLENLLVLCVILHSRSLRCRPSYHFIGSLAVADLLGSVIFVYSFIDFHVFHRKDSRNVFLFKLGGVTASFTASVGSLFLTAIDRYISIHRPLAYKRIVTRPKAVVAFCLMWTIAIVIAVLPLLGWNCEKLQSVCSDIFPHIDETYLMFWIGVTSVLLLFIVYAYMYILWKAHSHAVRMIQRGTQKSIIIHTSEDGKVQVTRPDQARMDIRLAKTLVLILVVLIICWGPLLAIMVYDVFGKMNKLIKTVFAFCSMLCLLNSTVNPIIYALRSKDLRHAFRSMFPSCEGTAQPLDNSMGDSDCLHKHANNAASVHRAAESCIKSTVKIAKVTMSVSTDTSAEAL
# [4] = target: T2, G-protein coupled receptor 35 (Homo sapiens, UniProt Q9HC97); test: SAR analysis of Antagonists of the GPR35 Receptor using an Image-Based Assay - Set 4. [Related pubchem assays (depositor defined):[…]]; assay type: functional
# T2 sequence (Q9HC97 whole entry): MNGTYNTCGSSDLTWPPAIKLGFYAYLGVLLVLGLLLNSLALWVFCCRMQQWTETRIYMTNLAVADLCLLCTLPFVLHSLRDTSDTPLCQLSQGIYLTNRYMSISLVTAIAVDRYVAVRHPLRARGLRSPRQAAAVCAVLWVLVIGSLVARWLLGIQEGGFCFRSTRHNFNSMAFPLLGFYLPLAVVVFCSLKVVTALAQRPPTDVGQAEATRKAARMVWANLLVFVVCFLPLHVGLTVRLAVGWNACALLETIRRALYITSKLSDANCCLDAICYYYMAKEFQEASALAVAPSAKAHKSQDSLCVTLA
# Cannabinoid receptor 1 [5] = target: T1, Cannabinoid receptor 1; test: SAR analysis of agonists of the Cannabinoid Receptor 1 using an Image-Based Assay - Set 3. [Related pubchem assays (depositor defined):AID1961, AID1965]; assay type: functional
# Cannabinoid receptor 2 [6] = target: T3, Cannabinoid receptor 2 (Homo sapiens, UniProt P34972); test: SAR analysis of agonists of the Cannabinoid Receptor 2 using an Image-Based Assay - Set 2. [Related pubchem assays (depositor defined):AID1961, AID1965]; assay type: functional
# T3 sequence (P34972 whole entry): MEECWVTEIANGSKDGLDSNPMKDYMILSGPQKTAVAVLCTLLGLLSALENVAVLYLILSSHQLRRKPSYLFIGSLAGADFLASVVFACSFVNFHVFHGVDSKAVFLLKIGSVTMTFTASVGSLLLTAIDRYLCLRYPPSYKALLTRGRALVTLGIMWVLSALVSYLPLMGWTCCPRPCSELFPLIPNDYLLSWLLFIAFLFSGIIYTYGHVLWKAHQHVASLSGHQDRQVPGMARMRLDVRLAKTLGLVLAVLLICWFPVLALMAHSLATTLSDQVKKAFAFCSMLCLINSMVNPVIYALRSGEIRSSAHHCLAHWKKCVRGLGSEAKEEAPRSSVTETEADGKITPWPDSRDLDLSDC
# Cannabinoid receptor 2 [7] = target: T3, Cannabinoid receptor 2; test: SAR analysis of antagonists of the Cannabinoid Receptor 2 using an Image-Based Assay - Set 2. [Related pubchem assays (depositor defined):AID1961, AID1965]; assay type: functional
# [8] = target: G-protein coupled receptor 55 (Homo sapiens, UniProt Q9Y2T6); test: SAR analysis of selective Agonists of GPR55 using an Image-Based Assay - Set 2. [Related pubchem assays (depositor defined):AID1961, AID1965]; assay type: functional
# Sequence of G-protein coupled receptor 55 (Q9Y2T6 whole entry): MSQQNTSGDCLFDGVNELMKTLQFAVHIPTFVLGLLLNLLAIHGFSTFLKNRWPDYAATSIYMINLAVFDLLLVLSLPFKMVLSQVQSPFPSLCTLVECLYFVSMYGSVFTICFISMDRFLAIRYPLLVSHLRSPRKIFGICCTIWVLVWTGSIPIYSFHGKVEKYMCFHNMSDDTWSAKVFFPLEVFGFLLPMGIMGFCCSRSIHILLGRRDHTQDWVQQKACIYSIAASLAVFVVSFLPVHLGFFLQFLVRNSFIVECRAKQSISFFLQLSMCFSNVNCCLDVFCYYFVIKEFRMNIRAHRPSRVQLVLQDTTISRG
# [9] = target: T2, G-protein coupled receptor 35; test: SAR analysis of Agonists of the GPR35 Receptor using an Image-Based Assay - Set 3. [Related pubchem assays (depositor defined):AID1961, AID1965]; assay type: functional
# Integrin alpha-4 = Integrin alpha-4 (Homo sapiens, UniProt P13612); test: allosteric modulators of alpha4 integrin VLA-4 – cell-based, LIBS antibody binding, flow cytometry, SAR follow-up (AID 488791); assay type: functional
# [10] = Trypanosoma cruzi growth suppression in host cells – NIH3T3 host cells, beta-gal luminescence, confirmation (AID 2044); assay type: functional, cell-based;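 also: intracellular parasites grown in NIH/3T3 mouse fibroblasts as host cells; luminescent beta-galactosidase reporter signal from transgenic T. cruzi replicating inside host cells; inhibitors lower the luminescence signal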
# [11] = NIH3T3 cell viability loss – ATP luminescence, mouse fibroblasts, counter-screen, dose response (AID 2010); assay type: functional, cell-based;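 also: cells exposed to compound for about 90 hours before reading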
# [12] = target: Protein-tyrosine kinase 2-beta (Homo sapiens, UniProt Q14289);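 also: potency of inhibitors of PYK2 kinase phosphorylation of poly-GT substrate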
# Sequence of Protein-tyrosine kinase 2-beta (Q14289 whole entry): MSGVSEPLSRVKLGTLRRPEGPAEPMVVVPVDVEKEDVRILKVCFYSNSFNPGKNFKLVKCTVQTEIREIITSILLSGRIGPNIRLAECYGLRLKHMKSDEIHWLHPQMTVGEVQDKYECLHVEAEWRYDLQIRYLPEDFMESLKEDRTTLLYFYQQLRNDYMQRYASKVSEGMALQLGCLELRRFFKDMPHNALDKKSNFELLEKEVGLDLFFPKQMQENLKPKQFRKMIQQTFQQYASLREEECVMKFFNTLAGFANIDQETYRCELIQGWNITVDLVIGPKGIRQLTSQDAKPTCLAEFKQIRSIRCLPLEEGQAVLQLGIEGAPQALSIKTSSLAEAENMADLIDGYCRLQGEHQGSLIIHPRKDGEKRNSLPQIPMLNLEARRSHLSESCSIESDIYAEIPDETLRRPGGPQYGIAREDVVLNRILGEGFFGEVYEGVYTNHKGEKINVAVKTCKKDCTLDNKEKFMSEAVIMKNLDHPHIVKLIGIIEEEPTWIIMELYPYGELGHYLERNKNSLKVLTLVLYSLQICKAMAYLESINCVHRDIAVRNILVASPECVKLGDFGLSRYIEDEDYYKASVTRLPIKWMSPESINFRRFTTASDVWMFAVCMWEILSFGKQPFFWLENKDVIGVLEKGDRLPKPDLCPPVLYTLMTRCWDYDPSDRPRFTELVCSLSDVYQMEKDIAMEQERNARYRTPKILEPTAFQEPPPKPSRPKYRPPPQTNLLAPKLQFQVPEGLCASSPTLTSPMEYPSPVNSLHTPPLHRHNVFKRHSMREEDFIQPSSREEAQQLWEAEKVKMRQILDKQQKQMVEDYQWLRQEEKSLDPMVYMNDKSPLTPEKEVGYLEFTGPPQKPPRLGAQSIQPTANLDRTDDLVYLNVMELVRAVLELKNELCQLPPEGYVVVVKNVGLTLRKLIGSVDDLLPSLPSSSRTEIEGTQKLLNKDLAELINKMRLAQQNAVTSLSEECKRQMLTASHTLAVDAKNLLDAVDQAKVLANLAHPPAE
# [13] = viability of HCT116 lacking mutant beta-catenin – cell-based, human colon tumor, dose response (AID 1045); assay type: functional;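 also: HCT116 colon tumor cells with beta catenin knocked out; cells exposed to compound for 60 hours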
# [14] = target: Dual specificity protein phosphatase 3 (Homo sapiens, UniProt P51452); test: SAR VHR1 Fluorescent Assay for In Vitro dose response studies Set 2. [Related pubchem assays (depositor defined):AID1654, AID1661, AID1878]; assay type: functional
# Sequence of Dual specificity protein phosphatase 3 (P51452 whole entry): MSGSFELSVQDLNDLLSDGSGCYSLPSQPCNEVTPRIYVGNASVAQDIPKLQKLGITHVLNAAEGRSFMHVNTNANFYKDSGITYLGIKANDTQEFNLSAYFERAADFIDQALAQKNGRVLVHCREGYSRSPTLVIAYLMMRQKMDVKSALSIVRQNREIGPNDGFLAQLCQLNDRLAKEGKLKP
# [15] = target: T4, Dual specificity protein phosphatase 6 (Rattus norvegicus, UniProt Q64346); assay type: functional;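 also: confirmatory in vitro dose-response testing of MKP-3 inhibition; recombinant His-tagged MKP-3 made in E. coli BL21 with OMFP substrate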
# T4 sequence (Q64346 whole entry): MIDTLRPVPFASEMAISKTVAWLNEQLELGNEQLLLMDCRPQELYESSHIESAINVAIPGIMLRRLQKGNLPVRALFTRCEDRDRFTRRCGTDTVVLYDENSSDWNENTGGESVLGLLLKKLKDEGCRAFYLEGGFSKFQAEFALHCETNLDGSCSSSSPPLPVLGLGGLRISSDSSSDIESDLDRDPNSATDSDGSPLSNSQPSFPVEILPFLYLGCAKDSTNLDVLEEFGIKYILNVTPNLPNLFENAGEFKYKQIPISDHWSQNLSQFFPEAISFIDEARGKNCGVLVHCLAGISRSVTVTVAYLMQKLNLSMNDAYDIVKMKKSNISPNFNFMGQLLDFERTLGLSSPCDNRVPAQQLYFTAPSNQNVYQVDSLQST
# [16] = target: T5, Tyrosine-protein phosphatase non-receptor type 7 (Homo sapiens, UniProt P35236); test: redox-active compounds inhibiting HePTP phosphatase – biochemical, fluorescence, mechanism study (AID 2068); assay type: functional
# T5 sequence (P35236 whole entry): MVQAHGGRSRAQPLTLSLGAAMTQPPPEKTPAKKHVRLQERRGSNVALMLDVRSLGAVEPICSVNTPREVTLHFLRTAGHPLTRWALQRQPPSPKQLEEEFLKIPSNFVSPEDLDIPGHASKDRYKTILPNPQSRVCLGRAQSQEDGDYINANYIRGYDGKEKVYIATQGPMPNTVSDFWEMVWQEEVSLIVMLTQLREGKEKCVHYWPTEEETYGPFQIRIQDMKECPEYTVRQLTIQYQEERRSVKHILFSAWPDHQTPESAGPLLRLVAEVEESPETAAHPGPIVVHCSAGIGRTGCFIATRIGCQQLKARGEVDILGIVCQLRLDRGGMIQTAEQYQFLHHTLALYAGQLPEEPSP
# Perilipin-1/ABHD5 = Perilipin-1/ABHD5 (Homo sapiens, UniProt O60240+Q8WTS1); test: Luminescence-based biochemical high throughput dose response assay for inhibitors of the interaction of the lipase co-activator protein, abhydrolase domain containing 5 (ABHD5) with perilipin-1 (PLIN1) (2K validation set). [Related pubchem assays (depositor defined):AID493027, AID493057]
# Sequence of Perilipin-1/ABHD5 (Q8WTS1 whole entry, the tested form may be a part): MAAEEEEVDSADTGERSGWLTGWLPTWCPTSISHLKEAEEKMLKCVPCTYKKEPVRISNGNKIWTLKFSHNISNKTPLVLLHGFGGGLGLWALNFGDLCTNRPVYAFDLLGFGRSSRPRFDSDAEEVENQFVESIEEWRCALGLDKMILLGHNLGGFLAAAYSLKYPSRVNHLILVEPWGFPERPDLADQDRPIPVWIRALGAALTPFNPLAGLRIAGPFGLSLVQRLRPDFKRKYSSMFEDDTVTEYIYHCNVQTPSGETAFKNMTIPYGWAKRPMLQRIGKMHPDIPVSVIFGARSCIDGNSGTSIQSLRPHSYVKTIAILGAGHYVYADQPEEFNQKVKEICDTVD
# Sequence of Perilipin-1/ABHD5 (O60240 whole entry, the tested form may be a part): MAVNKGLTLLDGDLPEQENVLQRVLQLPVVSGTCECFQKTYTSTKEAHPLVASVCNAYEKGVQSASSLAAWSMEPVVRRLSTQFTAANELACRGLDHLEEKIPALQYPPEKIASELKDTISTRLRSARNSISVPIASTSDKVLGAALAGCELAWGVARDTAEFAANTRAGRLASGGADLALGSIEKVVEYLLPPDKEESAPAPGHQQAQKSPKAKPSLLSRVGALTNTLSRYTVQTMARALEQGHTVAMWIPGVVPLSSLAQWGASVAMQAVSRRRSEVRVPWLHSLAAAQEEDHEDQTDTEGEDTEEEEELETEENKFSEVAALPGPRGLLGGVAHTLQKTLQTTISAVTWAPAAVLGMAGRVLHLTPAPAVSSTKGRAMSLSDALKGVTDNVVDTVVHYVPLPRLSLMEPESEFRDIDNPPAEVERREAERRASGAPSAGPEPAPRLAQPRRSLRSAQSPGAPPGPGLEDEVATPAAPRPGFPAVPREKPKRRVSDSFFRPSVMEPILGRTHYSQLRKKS
# [17] = target: 1-acylglycerol-3-phosphate O-acyltransferase ABHD5/Perilipin-5 (Homo sapiens, UniProt Q00G26+Q8WTS1); test: Luminescence-based biochemical high throughput dose response assay for inhibitors of the interaction of the lipase co-activator protein, abhydrolase domain containing 5 (ABHD5) with perilipin-5 (MLDP; PLIN5) (2K validation set). [Related pubchem assays (depositor defined):AID493035, AID493241]
# [18] = target: T6, DNA repair and recombination protein RAD54-like (Homo sapiens, UniProt Q92698); test: RAD54 Holliday junction migration blockers – biochemical, fluorescence, cherry-picked samples, dose series, confirmation (AID 651657); assay type: functional
# T6 sequence (Q92698 whole entry): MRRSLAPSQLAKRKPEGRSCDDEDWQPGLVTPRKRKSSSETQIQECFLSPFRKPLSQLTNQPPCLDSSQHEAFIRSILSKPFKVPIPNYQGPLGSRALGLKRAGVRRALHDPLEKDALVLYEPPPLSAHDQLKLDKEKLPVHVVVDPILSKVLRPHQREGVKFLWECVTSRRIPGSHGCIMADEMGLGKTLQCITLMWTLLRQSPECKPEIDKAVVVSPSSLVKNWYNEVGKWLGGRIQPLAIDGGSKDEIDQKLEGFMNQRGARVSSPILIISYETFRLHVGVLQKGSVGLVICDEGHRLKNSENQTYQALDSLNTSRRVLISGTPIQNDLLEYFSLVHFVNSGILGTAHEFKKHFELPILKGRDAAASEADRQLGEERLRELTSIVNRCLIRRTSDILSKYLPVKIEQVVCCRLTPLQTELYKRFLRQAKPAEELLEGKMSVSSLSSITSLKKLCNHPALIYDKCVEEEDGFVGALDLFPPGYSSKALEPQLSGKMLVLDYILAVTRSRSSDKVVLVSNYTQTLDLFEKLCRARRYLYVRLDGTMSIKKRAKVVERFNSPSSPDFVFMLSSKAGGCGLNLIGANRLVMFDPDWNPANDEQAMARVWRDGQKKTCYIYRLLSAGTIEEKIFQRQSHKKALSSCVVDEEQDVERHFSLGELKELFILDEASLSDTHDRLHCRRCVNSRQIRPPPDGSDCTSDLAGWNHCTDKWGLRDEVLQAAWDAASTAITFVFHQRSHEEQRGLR
# Trypsin = Trypsin (Sus scrofa, UniProt P00761); test: trypsin protease activity blockade – biochemical, quenched peptide fluorescence, cherry-pick, selectivity assay for Rce1 protease inhibitor project, dose response (AID 488789)
# Sequence of Trypsin (P00761 whole entry): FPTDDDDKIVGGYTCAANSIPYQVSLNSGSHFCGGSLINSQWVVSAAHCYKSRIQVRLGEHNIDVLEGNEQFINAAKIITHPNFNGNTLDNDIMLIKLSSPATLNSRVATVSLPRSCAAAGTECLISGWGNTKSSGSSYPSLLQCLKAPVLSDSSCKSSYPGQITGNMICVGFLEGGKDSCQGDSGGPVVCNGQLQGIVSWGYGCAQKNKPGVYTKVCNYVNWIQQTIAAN
# [19] = viability of PTEN-deleted HCT116 cells – cell-based, HCT116 PTEN knockout, dose response (AID 1047); assay type: functional;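 also: HCT116 colon tumor cells with PTEN knocked out; cells exposed to compound for 60 hours before readout; potency for loss of cell viability measured by luminescence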
# CAAX prenyl protease 2 = CAAX prenyl protease 2 (Saccharomyces cerevisiae S288c, UniProt Q03530); assay type: biochemical
# Vero = test: inhibition of WNV-induced cytopathic effect – cell-based, CPE readout (AID 1621); assay type: functional; conditions: Chlorocebus sabaeus
# [20] = target: Delta-type opioid receptor (Homo sapiens, UniProt P41143); test: SAR Analysis of Antagonists of the DOR Receptor using an Image-Based Assay - Set 3. [Related pubchem assays (depositor defined):AID1777, AID1785]; assay type: functional;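 also: U2OS cells expressing DOR1 and beta-arrestin GFP stimulated with 100 nM SNC80; imaging of GFP-tagged beta-arrestin moving into spots after receptor activation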
# Sequence of Delta-type opioid receptor (P41143 whole entry): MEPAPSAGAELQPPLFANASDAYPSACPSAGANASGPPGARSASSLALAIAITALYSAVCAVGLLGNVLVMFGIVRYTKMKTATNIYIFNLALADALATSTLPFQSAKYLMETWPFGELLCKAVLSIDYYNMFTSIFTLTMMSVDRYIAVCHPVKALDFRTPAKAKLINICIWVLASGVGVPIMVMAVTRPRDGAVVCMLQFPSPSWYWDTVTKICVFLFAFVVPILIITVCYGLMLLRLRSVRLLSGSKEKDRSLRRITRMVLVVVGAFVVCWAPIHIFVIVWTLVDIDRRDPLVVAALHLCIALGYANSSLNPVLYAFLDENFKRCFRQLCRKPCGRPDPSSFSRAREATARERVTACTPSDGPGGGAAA
# Mu-type opioid receptor = Mu-type opioid receptor (Homo sapiens, UniProt P35372); test: SAR Analysis of Antagonists of the MOR Receptor using an Image-Based Assay - Set 3. [Related pubchem assays (depositor defined):AID1777, AID1785, AID1786, AID1966, AID2133, AID2136, AID2284, AID2285, AID2420]; assay type: functional
# Sequence of Mu-type opioid receptor (P35372 whole entry): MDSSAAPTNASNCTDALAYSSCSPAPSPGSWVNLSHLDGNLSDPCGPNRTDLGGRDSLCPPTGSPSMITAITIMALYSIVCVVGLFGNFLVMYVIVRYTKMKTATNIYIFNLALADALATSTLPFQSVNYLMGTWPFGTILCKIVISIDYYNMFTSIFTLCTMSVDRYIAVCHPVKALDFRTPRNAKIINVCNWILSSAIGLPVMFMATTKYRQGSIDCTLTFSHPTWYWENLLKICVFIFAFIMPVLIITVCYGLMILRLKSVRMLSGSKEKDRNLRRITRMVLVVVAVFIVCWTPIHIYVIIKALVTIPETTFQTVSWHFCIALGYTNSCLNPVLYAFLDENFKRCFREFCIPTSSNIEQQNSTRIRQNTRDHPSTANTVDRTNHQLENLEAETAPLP
# [21] = target: T7, Kappa-type opioid receptor (Homo sapiens, UniProt P41145); test: SAR analysis of Antagonists of the Kappa Opioid Receptor (KOR) using an Image-Based Assay - Set 3. [Related pubchem assays (depositor defined):AID1777, AID1785]; assay type: functional
# T7 sequence (P41145 whole entry): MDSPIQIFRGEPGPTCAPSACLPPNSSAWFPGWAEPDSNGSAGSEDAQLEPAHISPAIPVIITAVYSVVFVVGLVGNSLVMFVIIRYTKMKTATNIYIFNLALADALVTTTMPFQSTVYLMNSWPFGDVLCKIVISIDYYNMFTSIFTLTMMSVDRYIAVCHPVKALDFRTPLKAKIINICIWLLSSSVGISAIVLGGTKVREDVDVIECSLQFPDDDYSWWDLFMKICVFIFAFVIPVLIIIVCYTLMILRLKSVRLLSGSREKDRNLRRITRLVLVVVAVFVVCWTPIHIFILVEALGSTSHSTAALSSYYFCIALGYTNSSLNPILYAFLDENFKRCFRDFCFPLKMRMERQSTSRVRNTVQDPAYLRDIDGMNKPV
# [22] = target: T7, Kappa-type opioid receptor; test: SAR analysis of small molecule antagonists of the kappa opioid receptor via a luminescent beta-arrestin assay - Set 3. [Related pubchem assays (depositor defined):AID1777, AID1778, AID1785, AID1786, AID1966, AID2133, AID2136, AID2285, AID2495]; assay type: functional
# Coagulation factor XII = Coagulation factor XII (Homo sapiens, UniProt P00748); test: Factor XIIa Dose Response Confirmation from Single Well HTS. [Related pubchem assays (depositor defined):AID701]; assay type: functional
# [23] = target: T7, Kappa-type opioid receptor; test: SAR analysis of small molecule antagonists of the kappa opioid receptor via a luminescent beta-arrestin assay - Set 4. [Related pubchem assays (depositor defined):AID1777, AID1778, AID1785, AID1786, AID1966, AID2133, AID2136, AID2285]; assay type: functional
# [24] = target: T7, Kappa-type opioid receptor; test: SAR analysis of Antagonists of the Kappa Opioid Receptor (KOR) using an Image-Based Assay - Set 4. [Related pubchem assays (depositor defined):AID1777, AID1785]; assay type: functional
# [25] = Luminescence Cell Based Dose Confirmation HTS to Identify Activators of 5'UTR Stem-Loop Driven Alpha-Synuclein mRNA Translation in H4 Neuroglioblastoma Cells. [Related pubchem assays (depositor defined):AID1813, AID1829]; assay type: functional; conditions: Homo sapiens
compound,measurement,setting,value
Clc1ccc(SCCCCN2CCNCC2)cc1,CC50,[1],> 40 µM (active)
same,CC50,[2],> 20 µM (active)
CCc1cc(C(=O)Nc2cc(S(=O)(=O)N3CCOCC3)ccc2OC)sc1C,IC50,Cannabinoid receptor 1 [3],> 32 µM (inactive)
same,IC50,[4],> 32 µM (inactive)
same,EC50,Cannabinoid receptor 1 [5],> 32 µM (inactive)
same,EC50,Cannabinoid receptor 2 [6],> 32 µM (inactive)
same,IC50,Cannabinoid receptor 2 [7],> 32 µM (inactive)
same,EC50,[8],2.22 µM (active)
same,EC50,[9],> 32 µM (inactive)
O=C(COc1ccc(/C=N/NC(=O)c2cc3ccccc3o2)cc1Cl)Nc1ccccc1,EC50,Integrin alpha-4,23.4 µM (active)
same,EC50,[10],2 µM (active)
same,EC50,[11],19.2 µM (active)
same,IC50,[12],2.65 µM (active)
same,EC50,[13],191 µM (active)
O=C(O)c1ccc(C=c2sc(=CC(=O)c3ccco3)[nH]c2=O)cc1,IC50,[14],16.2 µM (active)
same,IC50,[15],> 100 µM (inactive)
same,IC50,[16],4.09 µM (active)
O=C(CN1C(=O)/C(=C/c2cccc(Br)c2)SC1=S)Nc1cccnc1,IC50,Perilipin-1/ABHD5,20.8 µM (inactive)
same,IC50,[17],16 µM (inactive)
COc1ccc2c(c1)c1ncn(CCN3CCCC3)c(=O)c1n2C,AC50,[18],23.3 µM (active)
same,AC50,Trypsin,19.7 µM (active)
COc1ccc(C2c3c(ncn(CCN4CCOCC4)c3=N)Oc3ccc4ccccc4c32)cc1 (stereo not given),EC50,[19],12.7 µM (active)
same,AC50,CAAX prenyl protease 2,15.7 µM (active)
same,IC50,Vero,18.7 µM (active)
same,EC50,[13],11.1 µM (active)
CCc1ccc(S(=O)(=O)NCc2ccc(C(=O)NCCN3Cc4ccccc4C3)cc2)cc1,IC50,[20],> 32 µM (inactive)
same,IC50,Mu-type opioid receptor,> 32 µM (inactive)
same,IC50,[21],> 32 µM (inactive)
same,IC50,[22],> 20 µM (inactive)
Cc1ccccc1C(=O)/N=c1\sccn1C,IC50,Coagulation factor XII,> 50 µM (inactive)
CC(C)Cc1ccc(S(=O)(=O)NCc2ccc(C(=O)NCCN(Cc3ccccc3)C(C)C)cc2)cc1,IC50,[23],4.02 µM (active)
same,IC50,[20],> 32 µM (inactive)
same,IC50,Mu-type opioid receptor,> 32 µM (inactive)
same,IC50,[24],595 nM (active)
Cc1ccc(Nc2ccc(-c3ccncc3)s2)c(Br)c1,EC50,[25],3.92 µM (active)
